# Values of other authors in patent US20010053381A1, “System and method for treating kidney diseases in diabetic and non-diabetic patients” (priority 2000, published 2001).
# Experiments:
# [1] = tested on: patients with type 1 DM
# [2] = tested on: patients with type 1 DM and diabetic nephropathy
substance,measurement,setting,value
insulin [CIIIT],blood pressure control,[1],improve blood pressure control substantially
same,reduction of antihypertensive medication requirements,[1],46%
same,progression of overt diabetic nephropathy,"[2]; 37 months, type 1 DM patients",arrest or appreciably reduce the progression
same,Creatinine clearance at baseline,"[2]; baseline, 31 patients with type 1 DM and diabetic nephropathy",46.1 ± 3.0 mL/min
same,Creatinine clearance at the end of the observation period,"[2]; end of observation period (37 months), 31 patients with type 1 DM and diabetic nephropathy",46.0 ± 3.9 mL/min
same,"hemoglobin Alc levels, after study period","[2]; value after decline during the study period, P=0.0062",7.6±0.3%
same,"hemoglobin Alc levels, start of study period","[2]; value before decline, patients with type 1 DM and diabetic nephropathy",8.6±0.6%
